system: FLU A (PR/8/34); test: Flu A Neuraminidase Antiviral Assay; format: cell-based; conditions: not given

Compound | EC50 [µM]
CN1C(=O)c2c(O)c(=O)ccn2N2C(c3c(F)cccc3F)C(CC(F)(F)F)CCC12 (single isomer, unassigned) [Compound 123C, 1-(2,6-difluorophenyl)-7-hydroxy-5-methyl-2-(2,2,2-trifluoroethyl)-1,2,3,4,4a,5-hexahydrodipyrido[1,2-b:2′,1′-f][1,2,4] triazine-6,8-dione] | > 8.1
CN1C(=O)c2c(O)c(=O)ccn2N2C(c3c(F)cccc3F)C(CC(F)(F)F)CCC12 (single isomer, unassigned) [Compound 123D, 1-(2,6-difluorophenyl)-7-hydroxy-5-methyl-2-(2,2,2-trifluoroethyl)-1,2,3,4,4a,5-hexahydrodipyrido[1,2-b:2′,1′-f][1,2,4] triazine-6,8-dione] | 0.0269
CN1C(=O)c2c(O)c(=O)ccn2N2C(c3ccccc3)C(CCC(F)F)CCC12 (single isomer, unassigned) [Compound 124A, 2-(3,3-difluoropropyl)-7-hydroxy-5-methyl-1-phenyl-1,2,3,4,4a,5-hexahydrodipyrido[1,2-b:2′,1′-f][1,2,4]triazine-6,8-dione] | 0.871
CN1C(=O)c2c(O)c(=O)ccn2N2C(c3ccccc3)C(CCC(F)F)CCC12 (single isomer, unassigned) [Compound 124B, 2-(3,3-difluoropropyl)-7-hydroxy-5-methyl-1-phenyl-1,2,3,4,4a,5-hexahydrodipyrido[1,2-b:2′,1′-f][1,2,4]triazine-6,8-dione] | 0.0016
COc1ccccc1C1C(CC(F)(F)F)CCC2N(C)C(=O)c3c(O)c(=O)ccn3N12 (single isomer, unassigned) [Compound 125A, 7-hydroxy-1-(2-methoxyphenyl)-5-methyl-2-(2,2,2-trifluoroethyl)-1,2,3,4,4a,5-hexahydrodipyrido[1,2-b:2′,1′-f][1,2,4]triazine-6,8-dione] | 1.02
COc1ccccc1C1C(CC(F)(F)F)CCC2N(C)C(=O)c3c(O)c(=O)ccn3N12 (single isomer, unassigned) [Compound 125B, 7-hydroxy-1-(2-methoxyphenyl)-5-methyl-2-(2,2,2-trifluoroethyl)-1,2,3,4,4a,5-hexahydrodipyrido[1,2-b:2′,1′-f][1,2,4]triazine-6,8-dione] | 0.0025
CN1C(=O)c2c(O)c(=O)ccn2N2C(c3ccccc3)C(CC(C)(F)F)CCC12 (single isomer, unassigned) [Compound 126A, 2-(2,2-difluoropropyl)-7-hydroxy-5-methyl-1-phenyl-1,2,3,4,4a,5-hexahydrodipyrido[1,2-b:2′,1′-f][1,2,4]triazine-6,8-dione] | > 8.1
CN1C(=O)c2c(O)c(=O)ccn2N2C(c3ccccc3)C(CC(C)(F)F)CCC12 (single isomer, unassigned) [Compound 126B, 2-(2,2-difluoropropyl)-7-hydroxy-5-methyl-1-phenyl-1,2,3,4,4a,5-hexahydrodipyrido[1,2-b:2′,1′-f][1,2,4]triazine-6,8-dione] | 0.0161
CN1C(=O)c2c(O)c(=O)ccn2N2C(c3ccccc3F)C(CC(F)(F)F)CCC12 (single isomer, unassigned) [Compound 127A, 1-(2-fluorophenyl)-7-hydroxy-5-methyl-2-(2,2,2-trifluoroethyl)-1,2,3,4,4a,5-hexahydrodipyrido[1,2-b:2′,1′-f][1,2,4]triazine-6,8-dione] | 3.5
CN1C(=O)c2c(O)c(=O)ccn2N2C(c3ccccc3F)C(CC(F)(F)F)CCC12 (single isomer, unassigned) [Compound 127B, 1-(2-fluorophenyl)-7-hydroxy-5-methyl-2-(2,2,2-trifluoroethyl)-1,2,3,4,4a,5-hexahydrodipyrido[1,2-b:2′,1′-f][1,2,4]triazine-6,8-dione] | 0.003
CN1C(=O)c2c(O)c(=O)ccn2N2C(c3ccccc3)C(CCC(F)(F)F)CCC12 (single isomer, unassigned) [Compound 128A, 7-hydroxy-5-methyl-1-phenyl-2-(3,3,3-trifluoropropyl)-1,2,3,4,4a,5-hexahydrodipyrido[1,2-b:2′,1′-f][1,2,4]triazine-6,8-dione] | 0.799
CN1C(=O)c2c(O)c(=O)ccn2N2C(c3ccccc3)C(CCC(F)(F)F)CCC12 (single isomer, unassigned) [Compound 128B, 7-hydroxy-5-methyl-1-phenyl-2-(3,3,3-trifluoropropyl)-1,2,3,4,4a,5-hexahydrodipyrido[1,2-b:2′,1′-f][1,2,4]triazine-6,8-dione] | 0.0015
CN1C(=O)c2c(O)c(=O)ccn2N2C(c3ccccc3)C(CC(F)F)CCC12 (single isomer, unassigned) [Compound 129A, 2-(2,2-difluoroethyl)-7-hydroxy-5-methyl-1-phenyl-1,2,3,4,4a,5-hexahydrodipyrido[1,2-b:2′,1′-f][1,2,4]triazine-6,8-dione] | 0.0023
CN1C(=O)c2c(O)c(=O)ccn2N2C(c3ccccc3)C(CC(F)F)CCC12 (single isomer, unassigned) [Compound 129B, 2-(2,2-difluoroethyl)-7-hydroxy-5-methyl-1-phenyl-1,2,3,4,4a,5-hexahydrodipyrido[1,2-b:2′,1′-f][1,2,4]triazine-6,8-dione] | 0.196
CN1C(=O)c2c(O)c(=O)ccn2N2C(c3ccccc3)C(CC(F)F)CCC12 (single isomer, unassigned) [Compound 129C, 2-(2,2-difluoroethyl)-7-hydroxy-5-methyl-1-phenyl-1,2,3,4,4a,5-hexahydrodipyrido[1,2-b:2′,1′-f][1,2,4]triazine-6,8-dione] | 0.0066
CN1C(=O)c2c(O)c(=O)ccn2N2C(c3ccccc3)C(CC(F)F)CCC12 (single isomer, unassigned) [Compound 129D, 2-(2,2-difluoroethyl)-7-hydroxy-5-methyl-1-phenyl-1,2,3,4,4a,5-hexahydrodipyrido[1,2-b:2′,1′-f][1,2,4]triazine-6,8-dione] | 0.092
Cc1cc(=O)c(O)c2n1N1C(c3ccccc3)C(CC(F)(F)F)CCC1N(C)C2=O (single isomer, unassigned) [Compound 132A, 7-hydroxy-5,10-dimethyl-1-phenyl-2-(2,2,2-trifluoroethyl)-1,2,3,4,4a,5-hexahydrodipyrido[1,2-b:2′,1′-f][1,2,4]triazine-6,8-dione] | > 0.81
Cc1cc(=O)c(O)c2n1N1C(c3ccccc3)C(CC(F)(F)F)CCC1N(C)C2=O (single isomer, unassigned) [Compound 132B, 7-hydroxy-5,10-dimethyl-1-phenyl-2-(2,2,2-trifluoroethyl)-1,2,3,4,4a,5-hexahydrodipyrido[1,2-b:2′,1′-f][1,2,4]triazine-6,8-dione] | 0.0213
Cc1cc(=O)c(O)c2n1N1C(c3ccccc3)C(CC(F)(F)F)CCC1N(C)C2=O (single isomer, unassigned) [Compound 132C, 7-hydroxy-5,10-dimethyl-1-phenyl-2-(2,2,2-trifluoroethyl)-1,2,3,4,4a,5-hexahydrodipyrido[1,2-b:2′,1′-f][1,2,4]triazine-6,8-dione] | > 0.81
Cc1cc(=O)c(O)c2n1N1C(c3ccccc3)C(CC(F)(F)F)CCC1N(C)C2=O (single isomer, unassigned) [Compound 132D, 7-hydroxy-5,10-dimethyl-1-phenyl-2-(2,2,2-trifluoroethyl)-1,2,3,4,4a,5-hexahydrodipyrido[1,2-b:2′,1′-f][1,2,4]triazine-6,8-dione] | > 0.81
CN1C(=O)c2c(O)c(=O)ccn2N2[C@H](c3ccccc3)[C@H](OCC(F)F)CC[C@@H]12 (single isomer, unassigned) [Compound 153A] | 3.06
CN1C(=O)c2c(O)c(=O)ccn2N2[C@H](c3ccccc3)[C@H](OCC(F)F)CC[C@@H]12 (single isomer, unassigned) [Compound 153B] | 0.0944
CN1C(=O)c2c(O)c(=O)ccn2C2C1CCCC2(O)c1ccccc1 (single isomer, unassigned) [Compound 165B, 1,7-dihydroxy-5-methyl-1-phenyl-1,3,4,4a,5,11a-hexahydro-2H-pyrido[1,2-a]quinoxaline-6,8-dione] | > 8.1
CCCC1CCC2C(n3ccc(=O)c(O)c3C(=O)N2C)C1(O)c1ccccc1 (single isomer, unassigned) [Compound 166B, 1,7-dihydroxy-5-methyl-1-phenyl-2-propyl-1,3,4,4a,5,11a-hexahydro-2H-pyrido[1,2-a]quinoxaline-6,8-dione] | > 8.1

same assay, conditions: MDCK, 48 h

Compound | EC50 [µM]
CC(C)CC1CC(c2ccccc2)N2C(C1)N(C)C(=O)c1c(O)c(=O)ccn12 (single isomer, unassigned) [Compound 130A, 7-hydroxy-3-isobutyl-5-methyl-1-phenyl-1,2,3,4,4a,5-hexahydrodipyrido[1,2-b:2′,1′-f][1,2,4]triazine-6,8-dione] | > 8.1
CCN1C(=O)c2c(O)c(=O)cc(COC)n2N2C(c3ccccc3)C(CC(F)(F)F)CCC12 (single isomer, unassigned) [Compound 131A, 5-ethyl-7-hydroxy-10-(methoxymethyl)-1-phenyl-2-(2,2,2-trifluoroethyl)-1,2,3,4,4a,5-hexahydrodipyrido[1,2-b:2′,1′-f][1,2,4]triazine-6,8-dione] | > 0.81
CN1C(=O)c2c(O)c(=O)ccn2N2C(c3ccccc3)C(O)CCC12 (single isomer, unassigned) [Compound 135A, 2,7-dihydroxy-5-methyl-1-phenyl-1,2,3,4,4a,5-hexahydrodipyrido[1,2-b:2′,1′-f][1,2,4]triazine-6,8-dione] | 0.428
CN1C(=O)c2c(O)c(=O)ccn2C2C1CCCC2(O)c1ccccc1 (single isomer, unassigned) [Compound 165A, 1,7-dihydroxy-5-methyl-1-phenyl-1,3,4,4a,5,11a-hexahydro-2H-pyrido[1,2-a]quinoxaline-6,8-dione] | > 8.1
CCCC1CCC2C(n3ccc(=O)c(O)c3C(=O)N2C)C1(O)c1ccccc1 (single isomer, unassigned) [Compound 166A, 1,7-dihydroxy-5-methyl-1-phenyl-2-propyl-1,3,4,4a,5,11a-hexahydro-2H-pyrido[1,2-a]quinoxaline-6,8-dione] | > 8.1
CN1C(=O)c2c(O)c(=O)ccn2N2C(c3ccccc3)[C@H]3CCCC[C@H]3C12 (stereo partly drawn) [Compound 16, (6bR,10aS)-4-hydroxy-6-methyl-11-phenyl-6a,6b,7,8,9,10,10a,11-octahydro-3H-pyrido[1′,2′:1,6][1,2,4]triazino[3,2-a]isoindole-3,5(6H)-dione] | 4.1

Reference: patent US20240018145A1, “[…]-DEPENDENT EN[…] TREATING OR […]” (priority 2020, published 2024)
